Measurements published in patent publication US20230106592A1, “METHOD FOR TREATING CANCER USING A COMBINATION OF DNA DAMAGING AGENTS AND ATR INHIBITORS” (Vertex Pharmaceuticals Incorporated, priority 2015, published 2023).
“Also recorded” adds a separate entry of the source. Where two headings read alike, the source gives them in different places.

Assays:
[1] = test system: PSN1 human pancreatic cancer xenografts; experiment: PSN1 xenograft, dose schedule in combination with gemcitabine; assay type: in vivo, Nude mice
advanced solid tumors [2] = experiment: Phase I trial, monotherapy: RECIST antitumor response; assay type: in vivo, human
Excerpt: (§1) Pts with advanced solid tumors enrolled in 2 sequential parts.
Eleven of the subjects were given a once weekly dosage of Compound A-2 as a monotherapy. Six of the subjects were given a twice weekly dosage of Compound A-2 as a monotherapy. […] DLTs were defined according to the National Cancer Institute (NCI) CTCAE (Version 4).
In part A, single pt cohorts received a compound of Formula A-2 once weekly in 21-day cycles with 3+3 dose escalation cohorts being implemented if grade 2 drug-related adverse events (AEs) occurred. […] If a DLT was reported, the cohort was expanded to include 3 additional pts with subsequent dose escalation being permitted if no further DLTs occurred. Paired pre- and post-treatment biopsies from selected pts in part B were assessed for pCHK1 levels by immunohistochemistry. Models based on preclinical and clinical data were used to simulate hematologic toxicities and pCHK1 inhibition for pts treated with a compound of Formula A-2 and CP.

[3] = Phase I trial, monotherapy and carboplatin combination: pharmacokinetics; assay type: in vivo, human; conditions: for half-life: human, plasma
Excerpt: as §1

pS345 Chk1 = experiment: pChk1 in paired tumor biopsies by immunohistochemistry; assay type: in vivo, human; conditions: for Decreased Chk1 phosphorylation: paired tumor biopsy
Excerpt: In some embodiments, one or more biomarkers may be used to monitor or determine the efficacy of the treatment. In certain embodiments, the percentage of phosphorylated Chk1 (i.e., pChk1) in paired samples may be used as a biomarker; pChk1 is believed to correlate with the level of ATR activity. For instance, in some embodiments, the amount of pChk1 in the nuclei of cancer cells/mm^2 of a tumor biopsy may be used to determine the efficacy of monotherapy with an ATR inhibitor or combination therapy including an ATR inhibitor in a subject. In some such embodiments, a first tumor biopsy may be taken between about one to about three hours (e.g., two hours) before administration of the ATR inhibitor and a second tumor biopsy may be taken between about one to about three hours (e.g., two hours) after administration of the ATR inhibitor. The amount of pChk1 in the nuclei of cancer cells/mm^2 tumor in the first biopsy is set to be 100%, such that the amount of pChk1 in the nuclei of cancer cells/mm^2 tumor in the second biopsy is normalized by the amount in the first biopsy.
as §1
As noted in Example 3, phosphorylated Chk1 was used as a biomarker in paired tumor biopsies of three subjects to determine the efficacy of the combination therapy. […] The amount of pChk1 in the nuclei of cancer cells/mm^2 tumor in the first biopsy was set to 100% and used to normalize the amount in the second biopsy.

advanced solid tumors [4] = experiment: Phase I trial, combination with gemcitabine: response and PFS; assay type: in vivo, human
Protocol: Fifty (50) pts (28 males and 22 females) of median age, 62 yrs (range 28-79 yrs), with Eastern Cooperative Oncology Group (ECOG) performance status 0/1:15/35 were treated. Primary tumors included non-small cell lung (NSCLC; n=6), pancreatic (n=2), breast (n=4), colorectal (n=15), head and neck (n=1), and other/missing (n=22).

[5] = Phase I trial, combination with cisplatin: adverse events and DLTs
Protocol: Twenty eight (28) pts (12 males and 16 females) of median age, 62.5 yrs (range 28-79 yrs), with Eastern Cooperative Oncology Group (ECOG) performance status 0-1 were treated. Primary tumors were breast (n=4), colorectal (n=3), ovarian (n=3), pancreatic (n=2), non-small cell lung cancer (NSCLC) (n=1), and other cancers (n=15).

CNCc1ccc(-c2cc(-c3nc(-c4ccc(S(=O)(=O)C(C)C)cc4)cnc3N)on2)cc1 [Compound A-2]
Efficacy (tumor volume) ([1]; Compound A-2 20 mg/kg every 6 days, dosed 12 to 24 hours after gemcitabine 15 mg/kg every 3 days): most effective | Benefit over gemcitabine treatment ([1]; Compound A-2 dosed before gemcitabine, or 48 hours after gemcitabine): limited benefit | Efficacy (tumor volume) ([1]; Compound A-2 dosed within 12 hours or beyond 24 hours of gemcitabine administration): reduced efficacy | Body weight loss ([1]; addition of Compound A-2 to gemcitabine compared with gemcitabine only): did not lead to increased body weight loss | RECIST response (advanced solid tumors [2]; advanced colorectal cancer pt with complete ATM loss, monotherapy 60 mg/m^2 weekly): complete response | Time on trial (advanced solid tumors [2]; colorectal cancer pt with complete response, monotherapy 60 mg/m^2): ≥ 59 wks | Duration of RECIST complete response (advanced solid tumors [2]; colorectal cancer subject, monotherapy 60 mg/m^2 weekly, ongoing): more than 28 months | Median duration of SD (advanced solid tumors [2]; monotherapy, 4 pts): 11 wks | Best response (advanced solid tumors [2]; part A monotherapy (n=1)): complete response | Drug interaction with carboplatin ([3]; Compound A-2 exposure alone versus combined with CP): no apparent drug interactions; also recorded: no interaction | Accumulation ([3]; IV, patients): no accumulation | AUC and Cmax versus dose ([3]; all DLs): linear | Pharmacokinetics (PK) versus dose ([3]; as a monotherapy and in combination with CP): dose proportional | half-life ([3]; intravenous, monotherapy and combination with carboplatin, read-out: Terminal elimination half-life (t1/2) (converted)): ~16 h | half-life ([3]; IV, patients, read-out: Median half-life (converted)): 16 h | Exposure (AUCinf and Cmax) versus dose ([3]; monotherapy and combination with carboplatin): increased proportionally | Decreased Chk1 phosphorylation (pS345 Chk1; DL2 (120 mg/m^2 + CP AUC 5)): 94% | Decreased Chk1 phosphorylation (pS345 Chk1; DL4 (90 mg/m^2 + CP AUC 5)): 74% | Decrease in pChk1 in nuclei of cancer cells/mm^2 tumor (pS345 Chk1; subject 1: carboplatin target AUC 5 mg/mL·min + 120 mg/m^2 Compound A-2, biopsy 2 hours before and after): 94% | Decrease in pChk1 in nuclei of cancer cells/mm^2 tumor (pS345 Chk1; subjects 2 and 3: carboplatin target AUC 5 mg/mL·min + 90 mg/m^2 Compound A-2): 73% | Progression-free survival (PFS) (advanced solid tumors [4]; 1 patient with renal cancer (papillary carcinoma), combination with gem): 415 days | Median PFS (advanced solid tumors [4]; Compound A-2 <90 mg/m^2 + gemcitabine 875 mg/m^2): 8.3 weeks | Median PFS (advanced solid tumors [4]; Compound A-2 ≥90 mg/m^2 + gemcitabine 500 mg/m^2): 29.3 weeks | Prolonged stable disease (SD) responses (advanced solid tumors [4]; combination with gem): 2 pts | Best overall response partial response (PR) (advanced solid tumors [4]; combination with gem, 50 pts): 4 pts | Progression-free survival (PFS) (advanced solid tumors [4]; pt with GIST, combination with gem): > 191 days | Time on trial (advanced solid tumors [4]; pt with breast cancer in DL8): > 133 days | Non-DLT grade 3-4 treatment-related adverse events ([5]; CIS day 1, Compound A-2 days 2 and 9, 28 pts): 11 pts | No. DLTs ([5]; Cohort 4: Compound A-2 210 mg/m^2 + Cisplatin 60 mg/m^2, 10/10, grade 3 elevated ALT): 1 (grade 3 | No. DLTs ([5]; Cohort 5: Compound A-2 140 mg/m^2 + Cisplatin 75 mg/m^2, 7/6, grade 3 drug hypersensitivity): 1 (grade 3 drug | Maximum tolerated combination dose ([5]; combination with CIS): not reached
